Data: ChEMBL document CHEMBL4346666, “Synthesis, mitochondrial localization of fluorescent derivatives of cinnamamide as anticancer agents” (Eur J Med Chem, 2019)

Experiments:
[1] = system: HepG2; assay: Cytotoxicity against human HepG2 cells assessed as cell viability at 20 uM measured after 48 hrs by MTT assay relative to control; format: functional; conditions: HepG2, 48 h, read-out: Activity
[2] = system: HeLa; assay: Cytotoxicity against human HeLa cells assessed as cell viability at 20 uM measured after 48 hrs by MTT assay relative to control; format: functional; conditions: read-out: Activity
[3] = system: MCF7; assay: Cytotoxicity against human MCF7 cells assessed as cell viability at 20 uM measured after 48 hrs by MTT assay relative to control; format: functional; conditions: MCF7, 48 h, read-out: Activity
[4] = system: HL-60; assay: Cytotoxicity against human HL60 cells assessed as cell viability at 20 uM measured after 48 hrs by MTT assay relative to control; format: functional; conditions: HL-60, 48 h, read-out: Activity
[5] = system: HL-60; assay: Cytotoxicity against human HL60 cells assessed as reduction in cell viability measured after 48 hrs by MTT assay; format: functional, cell-based; conditions: HL-60, 48 h

SMILES | viability at 20 µM [1] | viability at 20 µM [2] | viability at 20 µM [3] | viability at 20 µM [4] | IC50 [5]
CCN(CC)c1ccc2cc(C(=O)NCCNC(=O)/C=C/c3c(OC)cc(OC)cc3OC)c(=O)oc2c1 | 75.4% | 63.9% | 72.1% | 68.9% | > 25 µM
CCN(CC)c1ccc2cc(C(=O)NCCNC(=O)/C(=C/c3cc(OC)c(OC)c(OC)c3)c3ccc(OC)cc3)c(=O)oc2c1 | 100% | 75% | 75.8% | 29.4% | 13.8 µM
CCN(CC)c1ccc2cc(C(=O)NCCNC(=O)/C(=C/c3cc(OC)c(OC)c(OC)c3)c3ccc(OC)c(F)c3)c(=O)oc2c1 | 100% | 99.7% | 100% | 67.7% | 15 µM
CCN(CC)c1ccc2cc(C(=O)NCCNC(=O)CCc3cc(OC)c(OC)c(OC)c3)c(=O)oc2c1 | 66.8% | 67.4% | 78.2% | 80.4% | > 25 µM
CCN(CC)c1ccc2cc(C(=O)NCCNC(=O)/C(=C/c3cc(OC)c(OC)c(OC)c3)c3ccc(F)cc3)c(=O)oc2c1 | 96% | 84.7% | 75.3% | 68.3% | 18.8 µM
CCN(CC)c1ccc2cc(C(=O)N3CCN(C(=O)/C(=C/c4cc(OC)c(OC)c(OC)c4)c4ccc(OC)c(OC)c4)CC3)c(=O)oc2c1 | 82.1% | 97.8% | 100% | 80.3% | –
CCN(CC)c1ccc2cc(C(=O)NCCCCNC(=O)/C(=C/c3cc(OC)c(OC)c(OC)c3)c3ccc(OC)cc3)c(=O)oc2c1 | 100% | 75% | 84.9% | 51.3% | –
CCN(CC)c1ccc2cc(C(=O)N3CCN(C(=O)/C=C/c4ccc(OC)cc4)CC3)c(=O)oc2c1 | 98.9% | 81.6% | 98.1% | 85.6% | –
CCN(CC)c1ccc2cc(C(=O)NCCNC(=O)/C=C/c3ccc(OC)cc3)c(=O)oc2c1 | 68.8% | 71.8% | 80.7% | 78.5% | > 25 µM
CCN(CC)c1ccc2cc(C(=O)N3CCN(C(=O)/C(=C/c4cc(OC)c(OC)c(OC)c4)c4ccc(OC)cc4)CC3)c(=O)oc2c1 | 100% | 100% | 100% | 74.3% | –
CCN(CC)c1ccc2cc(C(=O)NCCCCNC(=O)/C=C/c3cc(OC)c(OC)c(OC)c3)c(=O)oc2c1 | 93.8% | 74.5% | 93.8% | 56.3% | –
CCN(CC)c1ccc2cc(C(=O)NCCCCCCNC(=O)/C(=C/c3cc(OC)c(OC)c(OC)c3)c3ccc(OC)cc3)c(=O)oc2c1 | 100% | 100% | 100% | 82.5% | –
CCN(CC)c1ccc2cc(C(=O)N3CCN(C(=O)/C=C/c4cc(OC)c(OC)cc4OC)CC3)c(=O)oc2c1 | 99.6% | 84.6% | 91.6% | 80.1% | –
CCN(CC)c1ccc2cc(C(=O)N3CCN(C(=O)/C=C/c4cc(OC)c(OC)c(OC)c4)CC3)c(=O)oc2c1 | 97.2% | 82.6% | 100% | 74.5% | –
CCN(CC)c1ccc2cc(C(=O)NCCNC(=O)/C=C/c3cc(OC)c(OC)c(OC)c3)c(=O)oc2c1 | 72.9% | 61.4% | 72.4% | 45.5% | 23.3 µM
CCN(CC)c1ccc2cc(C(=O)NCCNC(=O)/C=C/c3cc(OC)c(OC)cc3OC)c(=O)oc2c1 | 100% | 72.6% | 76.4% | 48.2% | 22.9 µM
CCN(CC)c1ccc2cc(C(=O)N3CCN(C(=O)/C=C/c4c(OC)cc(OC)cc4OC)CC3)c(=O)oc2c1 | 88.7% | 78.2% | 94% | 75.3% | –
CCN(CC)c1ccc2cc(C(=O)NCCCCCCNC(=O)/C=C/c3cc(OC)c(OC)c(OC)c3)c(=O)oc2c1 | 100% | 72.2% | 91% | 43.5% | –
CCN(CC)c1ccc2cc(C(=O)NCCCCCCNC(=O)/C=C/c3ccc(OC)cc3)c(=O)oc2c1 | 76.6% | 100% | 87.8% | 99.8% | –
CCN(CC)c1ccc2cc(C(=O)NCCNC(=O)/C(=C/c3cc(OC)c(OC)c(OC)c3)c3ccc(C(F)(F)F)cc3)c(=O)oc2c1 | 98.9% | 74% | 79.1% | 54.2% | > 25 µM
